# Measurements taken from ChEMBL document CHEMBL6083277, “Discovery of SZJK-0421: A Novel Potent, Low Toxicity, Selective Second Generation of CRM1 Inhibitor for the Treatment of Both Hematological and Solid Tumors” (J Med Chem, 2024).
# Calls of active or inactive are those of the source. No cut-off for these calls is given here.
# System: MM1.S
# Test: Antiproliferative activity against human MM1.S cells assessed as inhibition of cell growth incubated for 72 hrs by celltiter-glo assay
# Type: functional, cell-based
IC50 [nM],SMILES,Activity
1410,N#Cc1ccc(/C(=C\c2cnn(-c3cc(C(F)(F)F)cc(C(F)(F)F)c3)c2)C(N)=O)cn1,–
332,CC(C)(C)NNC(=O)/C(=C/n1cnc(-c2cc(C(F)(F)F)cc(C(F)(F)F)c2)n1)c1cncnc1,–
–,NC(=O)/C(=C/c1cnn(-c2cc(C(F)(F)F)cc(C(F)(F)F)c2)c1)c1ccncc1,inactive
–,CN(C)c1ncc(/C(=C\c2cnn(-c3cc(C(F)(F)F)cc(C(F)(F)F)c3)c2)C(N)=O)cn1,inactive
128,NC(=O)/C(=C/n1cnc(-c2cc(C(F)(F)F)cc(C(F)(F)F)c2)n1)c1ccncc1,–
313,NC(=O)/C(=C/n1cnc(-c2cc(C(F)(F)F)cc(C(F)(F)F)c2)n1)c1c[nH]c2ccccc12,–
1040,CONC(=O)/C(=C/n1cnc(-c2cc(C(F)(F)F)cc(C(F)(F)F)c2)n1)c1ccc(C#N)cc1,–
323,O=C(NC12CC3CCC1CC(C3)C2)/C(=C/n1cnc(-c2cc(C(F)(F)F)cc(C(F)(F)F)c2)n1)c1cncnc1 (configuration not stated),–
–,Cc1ccc(/C(=C\C(N)=O)c2cnn(-c3cc(C(F)(F)F)cc(C(F)(F)F)c3)c2)cn1,inactive
–,CN(C)c1ncc(/C(=C\C(N)=O)c2cnn(-c3cc(C(F)(F)F)cc(C(F)(F)F)c3)c2)cn1,inactive
321,O=C(NC1CCCCCC1)/C(=C/n1cnc(-c2cc(C(F)(F)F)cc(C(F)(F)F)c2)n1)c1cncnc1,–
1920,NC(=O)/C(=C/n1ccc(-c2cc(C(F)(F)F)cc(C(F)(F)F)c2)n1)c1ccc(C(F)(F)F)nc1,–
–,N#Cc1ccc(/C(=C\C(N)=O)c2cnn(-c3cc(C(F)(F)F)cc(C(F)(F)F)c3)c2)cn1,inactive
176,N#Cc1ccc(/C(=C\n2cnc(-c3cc(C(F)(F)F)cc(C(F)(F)F)c3)n2)C(N)=O)cn1,–
–,NC(=O)/C=C(\c1cncc(F)c1)c1cnn(-c2cc(C(F)(F)F)cc(C(F)(F)F)c2)c1,inactive
–,Cc1cn(/C=C(/C(N)=O)c2cncnc2)nc1-c1cc(C(F)(F)F)cc(C(F)(F)F)c1,inactive
198,CONC(=O)/C(=C/n1cnc(-c2cc(C(F)(F)F)nc(C(F)(F)F)c2)n1)c1cncnc1,–
1700,CONC(=O)/C(=C/n1cnc(-c2cc(OC(=O)CCNC(=O)CCCC[C@@H]3SC[C@@H]4NC(=O)N[C@@H]43)cc(C(F)(F)F)c2)n1)c1cncnc1,–
185,CONC(=O)/C(=C/n1cnc(-c2cc(C(F)(F)F)cc(C(F)(F)F)c2)n1)c1ccc(C#N)nc1,–
–,Cc1ccc(/C(=C\c2cnn(-c3cc(C(F)(F)F)cc(C(F)(F)F)c3)c2)C(N)=O)cn1,inactive
880,N#Cc1ccc(/C(=C\n2ccc(-c3cc(C(F)(F)F)cc(C(F)(F)F)c3)n2)C(N)=O)cn1,–

IC50 [nM],SMILES,Activity
–,NC(=O)/C=C(\c1ccc(F)nc1)c1cnn(-c2cc(C(F)(F)F)cc(C(F)(F)F)c2)c1,inactive
142,O=C(NC1CCOCC1)/C(=C/n1cnc(-c2cc(C(F)(F)F)cc(C(F)(F)F)c2)n1)c1cncnc1,–
207,CONC(=O)/C(=C/n1cnc(-c2cc(C(F)(F)F)nc(C(F)(F)F)c2)n1)c1ccc(C)nc1,–
259,NC(=O)/C(=C/n1cnc(-c2cc(C(F)(F)F)cc(C(F)(F)F)c2)n1)c1cncc(F)c1,–
646,COc1ncc(/C(=C\n2cnc(-c3cc(C(F)(F)F)cc(C(F)(F)F)c3)n2)C(N)=O)cn1,–
1470,NC(=O)/C(=C/n1cnc(-c2cc(C(F)(F)F)cc(C(F)(F)F)c2)n1)c1ccc(F)nc1,–
328,O=C(NNc1cnccn1)/C(=C/n1cnc(-c2cc(C(F)(F)F)cc(C(F)(F)F)c2)n1)c1cncnc1,–
1430,NC(=O)/C(=C/n1ccc(-c2cc(C(F)(F)F)cc(C(F)(F)F)c2)n1)c1ccncc1,–
–,NC(=O)/C(=C/c1cnn(-c2cc(C(F)(F)F)cc(C(F)(F)F)c2)c1)c1ccc(F)nc1,inactive
1660,NC(=O)/C(=C/n1cnc(-c2cc(C(F)(F)F)cc(C(F)(F)F)c2)n1)c1ccc(C(F)(F)F)nc1,–
244,CONC(=O)/C(=C/n1cnc(-c2cc(C(F)(F)F)cc(C(F)(F)F)c2)n1)c1cnc(OC)nc1,–
1310,CN(C)c1ncc(/C(=C\n2cnc(-c3cc(C(F)(F)F)cc(C(F)(F)F)c3)n2)C(N)=O)cn1,–
166,CONC(=O)/C(=C/n1cnc(-c2cc(C(F)(F)F)cc(C(F)(F)F)c2)n1)c1ccc(OC)nc1,–
346,NC(=O)/C(=C/n1cnc(-c2cc(C(F)(F)F)cc(C(F)(F)F)c2)n1)c1ccccc1,–
75.7,CON(C)C(=O)/C(=C/n1cnc(-c2cc(C(F)(F)F)cc(C(F)(F)F)c2)n1)c1cncnc1,–
2260,COc1ncc(/C(=C\c2cnn(-c3cc(C(F)(F)F)cc(C(F)(F)F)c3)c2)C(N)=O)cn1,–
1340,NC(=O)/C(=C/c1cnn(-c2cc(C(F)(F)F)cc(C(F)(F)F)c2)c1)c1ccc(C(F)(F)F)nc1,–
1750,NC(=O)/C(=C/c1cnn(-c2cc(C(F)(F)F)cc(C(F)(F)F)c2)c1)c1cncnc1,–
–,COc1ncc(/C(=C\C(N)=O)c2cnn(-c3cc(C(F)(F)F)cc(C(F)(F)F)c3)c2)cn1,inactive
1400,O=C(NCc1cccnc1)/C(=C/n1cnc(-c2cc(C(F)(F)F)cc(C(F)(F)F)c2)n1)c1cncnc1,–
111,CCONC(=O)/C(=C/n1cnc(-c2cc(C(F)(F)F)cc(C(F)(F)F)c2)n1)c1cncnc1,–

IC50 [nM],SMILES,Activity
292,O=C(NC1CCCC1)/C(=C/n1cnc(-c2cc(C(F)(F)F)cc(C(F)(F)F)c2)n1)c1cncnc1,–
226,NC(=O)/C(=C/n1cnc(-c2cc(C(F)(F)F)nc(C(F)(F)F)c2)n1)c1cncnc1,–
99.3,COC(=O)CNC(=O)/C(=C/n1cnc(-c2cc(C(F)(F)F)cc(C(F)(F)F)c2)n1)c1cncnc1,–
485,CONC(=O)/C(=C/n1cnc(-c2cc(C(F)(F)F)cc(C(F)(F)F)c2)n1)c1cnc(Cl)nc1,–
572,O=C(NC1CCCCC1)/C(=C/n1cnc(-c2cc(C(F)(F)F)cc(C(F)(F)F)c2)n1)c1cncnc1,–
202,CONC(=O)/C(=C/n1cnc(-c2cc(C(F)(F)F)cc(C(F)(F)F)c2)n1)c1ccncc1,–
990,CONC(=O)/C(=C/n1cnc(-c2cc(C(F)(F)F)cc(C(F)(F)F)c2)n1)c1ccsc1,–
2360,NC(=O)/C(=C/c1cnn(-c2cc(C(F)(F)F)cc(C(F)(F)F)c2)c1)c1cncc(F)c1,–
447,NC(=O)/C(=C/n1cnc(-c2cc(C(F)(F)F)cc(C(F)(F)F)c2)n1)c1cccc2cccnc12,–
1210,NC(=O)/C(=C/n1ccc(-c2cc(C(F)(F)F)cc(C(F)(F)F)c2)n1)c1cncnc1,–
245,Cc1ccc(/C(=C\n2cnc(-c3cc(C(F)(F)F)nc(C(F)(F)F)c3)n2)C(N)=O)cn1,–
178,O=C(NC1CC1)/C(=C/n1cnc(-c2cc(C(F)(F)F)cc(C(F)(F)F)c2)n1)c1cncnc1,–
189,CNC(=O)/C(=C/n1cnc(-c2cc(C(F)(F)F)cc(C(F)(F)F)c2)n1)c1cncnc1,–
–,NC(=O)/C=C(\c1cncnc1)c1cnn(-c2cc(C(F)(F)F)cc(C(F)(F)F)c2)c1,inactive
–,NC(=O)/C=C(\c1ccc(C(F)(F)F)nc1)c1cnn(-c2cc(C(F)(F)F)cc(C(F)(F)F)c2)c1,inactive
1220,N#Cc1cn(/C=C(/C(N)=O)c2cncnc2)nc1-c1cc(C(F)(F)F)cc(C(F)(F)F)c1,–
–,NC(=O)/C=C(\c1ccncc1)c1cnn(-c2cc(C(F)(F)F)cc(C(F)(F)F)c2)c1,inactive
1500,O=C(NCc1ccccn1)/C(=C/n1cnc(-c2cc(C(F)(F)F)cc(C(F)(F)F)c2)n1)c1cncnc1,–
–,Cc1ccc(/C(=C\n2cnc(-c3cc(C(F)(F)F)cc(C(F)(F)F)c3)n2)C(N)=O)cn1,inactive
1200,CONC(=O)/C(=C/n1cnc(-c2cc(C(F)(F)F)cc(C(F)(F)F)c2)n1)c1ccn(C)n1,–
